Experimental data reported in patent US8778881B2 (priority 2004, dated 2014).
Like-named read-outs stand apart in the source and are kept apart here. Numbered stars: 1 amine (or outer) side, 2 acyl side, 3 side chain; on linkers, the order of the positions; unused ones are H or OH. Bridge positions count the residues as written; N and C are the ends. Square brackets hold non-standard residues; d marks the D form. Peptide text beside a SMILES is read from it. * marks the point of attachment. Orn(Me) = CN(CCC[C@H](N[*:1])C(=O)[*:2])[*:3]; Ala(2-furyl) = N[C@@H](Cc1ccco1)C(=O)O; Orn(iPr) = CC(C)NCCC[C@H](N)C(=O)O; X1 = CCNCCC[C@H](N[*:1])C(=O)[*:2]; 3Pal = N[C@@H](Cc1cccnc1)C(=O)O; 2Thi = N[C@@H](Cc1cccs1)C(=O)O; Aad = N[C@@H](CCCC(=O)O)C(=O)O; NHCH(CH2OH)2 = OCC(CO)N*; Orn = NCCC[C@H](N)C(=O)O; Dab = NCC[C@H](N)C(=O)O; X4 = OCCOCCN*; NHOH = ON*

Target: T1, human oxytocin (hOT) receptor (Homo sapiens, UniProt P30559)
T1 construct: expressed in transfected cells
T1 sequence (P30559 1-389): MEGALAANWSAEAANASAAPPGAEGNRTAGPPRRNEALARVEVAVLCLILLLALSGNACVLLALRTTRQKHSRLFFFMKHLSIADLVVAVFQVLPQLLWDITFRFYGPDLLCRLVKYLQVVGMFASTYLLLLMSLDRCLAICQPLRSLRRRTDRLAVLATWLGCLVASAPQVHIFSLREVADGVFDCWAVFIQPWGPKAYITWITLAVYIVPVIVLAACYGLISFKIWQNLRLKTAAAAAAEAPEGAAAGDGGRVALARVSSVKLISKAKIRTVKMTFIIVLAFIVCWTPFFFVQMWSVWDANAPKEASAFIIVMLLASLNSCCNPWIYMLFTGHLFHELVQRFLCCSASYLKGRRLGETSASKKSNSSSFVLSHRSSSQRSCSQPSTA
Assay: luciferase-based transcriptional reporter assay expressing the human oxytocin (hOT) receptor, for selectivity
Assay type: cell-based
Experimental: Agonist activity of compounds on the hV1a receptor was determined in a transcriptional reporter assay by transiently transfecting a hV1a receptor expression DNA into HEK-293 cells in concert with a reporter DNA containing intracellular calcium responsive promoter elements regulating expression of firefly luciferase. See Boss, V., Talpade, D. J., Murphy, T. J. J. Biol. Chem. 1996, May 3; 271(18), 10429-10432 for further guidance on this assay. […] To determine selectivity, compounds were tested in luciferase-based transcriptional reporter assays expressing the human oxytocin (hOT) receptor. Assays for other receptors (hV2, hV1b, rat V1a and rat V2) were also conducted.
The EC50 value given is the geometric mean expressed in nanomol/L (nM). Selectivity values are given as EC50 ratios.

[1] = agonist efficacy at the hOT receptor compared to AVP, ratio not determined

SMILES	selectivity hOT/hV1a (class symbol) [1]	selectivity hOT/hV1a (class symbol)
CC[C@H](C)[C@@H]1NC(=O)[C@H](Cc2ccccc2)NC(=O)[C@@H](N)CSSC[C@@H](C(=O)N2CCC[C@H]2C(=O)N[C@@H](CCCN)C(=O)NCC(N)=O)NC(=O)[C@H](CC(N)=O)NC(=O)[C@H](CC(=O)NC(CO)CO)NC1=O [Compound 27] (H-CFID(NHCH(CH2OH)2)NCP[Orn]G-NH2; disulfide 1-6; N-terminus and C-terminus assumed)	+ (selective hV1a receptor agonist; EC50 hOT/hV1a ratio not determined due to very low agonist efficacy (<30% compared to AVP) at the hOT receptor)	
CC[C@H](C)[C@@H]1NC(=O)[C@H](Cc2ccco2)NC(=O)[C@@H](N)CSSC[C@@H](C(=O)N2CCC[C@H]2C(=O)N[C@@H](CCN)C(=O)NCC(N)=O)NC(=O)[C@H](CC(N)=O)NC(=O)[C@H](CC(N)=O)NC1=O [Compound 44] (H-C[Ala(2-furyl)]INNCP[Dab]G-NH2; disulfide 1-6; N-terminus and C-terminus assumed)	+ (selective hV1a receptor agonist; EC50 hOT/hV1a ratio not determined due to very low agonist efficacy (<30% compared to AVP) at the hOT receptor)	
CC[C@H](C)[C@@H]1NC(=O)[C@H](Cc2cccnc2)NC(=O)[C@@H](N)CSSC[C@@H](C(=O)N2CCC[C@H]2C(=O)N[C@@H](CCN)C(=O)NCC(N)=O)NC(=O)[C@H](CC(N)=O)NC(=O)[C@H](CCC(N)=O)NC1=O [Compound 18] (H-C[3Pal]IQNCP[Dab]G-NH2; disulfide 1-6; N-terminus and C-terminus assumed)	+ (selective hV1a receptor agonist; EC50 hOT/hV1a ratio not determined due to very low agonist efficacy (<30% compared to AVP) at the hOT receptor)	
CC[C@H](C)[C@@H]1NC(=O)[C@H](Cc2ccco2)NC(=O)[C@@H](N)CSSC[C@@H](C(=O)N2CCC[C@H]2C(=O)N[C@@H](CCCNC(C)C)C(=O)NCC(N)=O)NC(=O)[C@H](CC(N)=O)NC(=O)[C@H](CC(N)=O)NC1=O [Compound 42] (H-C[Ala(2-furyl)]INNCP[Orn(iPr)]G-NH2; disulfide 1-6)		+ (key: +: selective hV1a receptor agonist; EC50 hOT/hV1a ratio not determined due to very low agonist efficacy (<30% compared to AVP) at the hOT receptor)
CC[C@H](C)[C@@H]1NC(=O)[C@H](Cc2ccccc2)NC(=O)[C@@H](N)CSSC[C@@H](C(=O)N2CCC[C@H]2C(=O)N[C@@H](CCCN)C(=O)NCC(N)=O)NC(=O)[C@H](CC(N)=O)NC(=O)[C@H](CC(N)=O)NC1=O [Compound 30] (H-CFINNCP[Orn]G-NH2; disulfide 1-6; N-terminus and C-terminus assumed)	+ (selective hV1a receptor agonist; EC50 hOT/hV1a ratio not determined due to very low agonist efficacy (<30% compared to AVP) at the hOT receptor)	
CC[C@H](C)[C@@H]1NC(=O)[C@H](Cc2ccccc2)NC(=O)[C@@H](N)CSSC[C@@H](C(=O)N2CCC[C@H]2C(=O)N[C@@H](CCN)C(=O)NCC(N)=O)NC(=O)[C@H](CC(N)=O)NC(=O)[C@H](CC(=O)NC)NC1=O [Compound 31] (H-CFID(NHMe)NCP[Dab]G-NH2; disulfide 1-6; N-terminus and C-terminus assumed)	+ (selective hV1a receptor agonist; EC50 hOT/hV1a ratio not determined due to very low agonist efficacy (<30% compared to AVP) at the hOT receptor)	
CCNC(=O)C[C@@H]1NC(=O)[C@H]([C@@H](C)CC)NC(=O)[C@H](Cc2ccccc2)NC(=O)[C@@H](N)CSSC[C@@H](C(=O)N2CCC[C@H]2C(=O)N[C@@H](CCCN)C(=O)NCC(N)=O)NC(=O)[C@H](CC(N)=O)NC1=O [Compound 48] (H-CFID(NHEt)NCP[Orn]G-NH2; disulfide 1-6; N-terminus and C-terminus assumed)	+ (selective hV1a receptor agonist; EC50 hOT/hV1a ratio not determined due to very low agonist efficacy (<30% compared to AVP) at the hOT receptor)	
CC[C@H](C)[C@@H]1NC(=O)[C@H](Cc2ccccc2)NC(=O)[C@@H](N)CSSC[C@@H](C(=O)N2CCC[C@H]2C(=O)N[C@@H](CCN)C(=O)NCC(N)=O)NC(=O)[C@H](CC(N)=O)NC(=O)[C@H](CCCC(N)=O)NC1=O [Compound 11] (H-CFI[Aad](NH2)NCP[Dab]G-NH2; disulfide 1-6)		+ (key: +: selective hV1a receptor agonist; EC50 hOT/hV1a ratio not determined due to very low agonist efficacy (<30% compared to AVP) at the hOT receptor)
CC[C@H](C)[C@@H]1NC(=O)[C@H](Cc2ccccc2)NC(=O)[C@@H](N)CSSC[C@@H](C(=O)N2CCC[C@H]2C(=O)N[C@@H](CCCNC)C(=O)NCC(N)=O)NC(=O)[C@H](CC(N)=O)NC(=O)[C@H](CC(N)=O)NC1=O [Compound 46] (H-CFINNCP[Orn(Me)]G-NH2; disulfide 1-6; N-terminus and C-terminus assumed)	+ (selective hV1a receptor agonist; EC50 hOT/hV1a ratio not determined due to very low agonist efficacy (<30% compared to AVP) at the hOT receptor)	
CC[C@H](C)[C@@H]1NC(=O)[C@H](Cc2ccco2)NC(=O)[C@@H](N)CSSC[C@@H](C(=O)N2CCC[C@H]2C(=O)N[C@@H](CCCN)C(=O)NCC(N)=O)NC(=O)[C@H](CC(N)=O)NC(=O)[C@H](CC(N)=O)NC1=O [Compound 38] (H-C[Ala(2-furyl)]INNCP[Orn]G-NH2; disulfide 1-6; N-terminus and C-terminus assumed)	+ (selective hV1a receptor agonist; EC50 hOT/hV1a ratio not determined due to very low agonist efficacy (<30% compared to AVP) at the hOT receptor)	
CC[C@H](C)[C@@H]1NC(=O)[C@H](Cc2ccccc2)NC(=O)[C@@H](N)CSSC[C@@H](C(=O)N2CCC[C@H]2C(=O)N[C@@H](CCCN)C(=O)NCC(N)=O)NC(=O)[C@H](CC(N)=O)NC(=O)[C@H](CC(=O)NCCOCCO)NC1=O [Compound 29] (H-CFID(X4)NCP[Orn]G-NH2; disulfide 1-6; N-terminus and C-terminus assumed)	+ (selective hV1a receptor agonist; EC50 hOT/hV1a ratio not determined due to very low agonist efficacy (<30% compared to AVP) at the hOT receptor)	
CCNCCC[C@H](NC(=O)[C@@H]1CCCN1C(=O)[C@@H]1CSSC[C@H](N)C(=O)N[C@@H](Cc2ccccc2)C(=O)N[C@@H]([C@@H](C)CC)C(=O)N[C@@H](CC(N)=O)C(=O)N[C@@H](CC(N)=O)C(=O)N1)C(=O)NCC(N)=O [Compound 47] (H-CFINNCP[X1]G-NH2; disulfide 1-6; N-terminus and C-terminus assumed)	+ (selective hV1a receptor agonist; EC50 hOT/hV1a ratio not determined due to very low agonist efficacy (<30% compared to AVP) at the hOT receptor)	
CC[C@H](C)[C@@H]1NC(=O)[C@H](Cc2cccs2)NC(=O)[C@@H](N)CSSC[C@@H](C(=O)N2CCC[C@H]2C(=O)N[C@@H](CCCNC(C)C)C(=O)NCC(N)=O)NC(=O)[C@H](CC(N)=O)NC(=O)[C@H](CC(N)=O)NC1=O [Compound 43] (H-C[2Thi]INNCP[Orn(iPr)]G-NH2; disulfide 1-6; N-terminus and C-terminus assumed)	+ (selective hV1a receptor agonist; EC50 hOT/hV1a ratio not determined due to very low agonist efficacy (<30% compared to AVP) at the hOT receptor)	
CC[C@H](C)[C@@H]1NC(=O)[C@H](Cc2ccccc2)NC(=O)[C@@H](N)CSSC[C@@H](C(=O)N2CCC[C@H]2C(=O)N[C@@H](CCCN)C(=O)NCC(N)=O)NC(=O)[C@H](CC(N)=O)NC(=O)[C@H](CCC(=O)NO)NC1=O [Compound 16] (H-CFIE(NHOH)NCP[Orn]G-NH2; disulfide 1-6; N-terminus and C-terminus assumed)	+ (selective hV1a receptor agonist; EC50 hOT/hV1a ratio not determined due to very low agonist efficacy (<30% compared to AVP) at the hOT receptor)	
CC[C@H](C)[C@@H]1NC(=O)[C@H](Cc2cccs2)NC(=O)[C@@H](N)CSSC[C@@H](C(=O)N2CCC[C@H]2C(=O)N[C@@H](CCN)C(=O)NCC(N)=O)NC(=O)[C@H](CC(N)=O)NC(=O)[C@H](CC(N)=O)NC1=O [Compound 36] (H-C[2Thi]INNCP[Dab]G-NH2; disulfide 1-6; N-terminus and C-terminus assumed)	+ (selective hV1a receptor agonist; EC50 hOT/hV1a ratio not determined due to very low agonist efficacy (<30% compared to AVP) at the hOT receptor)	
CC[C@H](C)[C@@H]1NC(=O)[C@H](Cc2ccccc2)NC(=O)[C@@H](N)CSSC[C@@H](C(=O)N2CCC[C@H]2C(=O)N[C@@H](CCCN)C(=O)NCC(N)=O)NC(=O)[C@H](CC(N)=O)NC(=O)[C@H](CC(=O)NC)NC1=O [Compound 49] (H-CFID(NHMe)NCP[Orn]G-NH2; disulfide 1-6; N-terminus and C-terminus assumed)	+ (selective hV1a receptor agonist; EC50 hOT/hV1a ratio not determined due to very low agonist efficacy (<30% compared to AVP) at the hOT receptor)	
CC[C@H](C)[C@@H]1NC(=O)[C@H](Cc2ccccc2)NC(=O)[C@@H](N)CSSC[C@@H](C(=O)N2CCC[C@H]2C(=O)N[C@@H](CCCN)C(=O)NCC(N)=O)NC(=O)[C@H](CC(N)=O)NC(=O)[C@H](CCC(=O)NC)NC1=O [Compound 19] (H-CFIE(NHMe)NCP[Orn]G-NH2; disulfide 1-6; N-terminus and C-terminus assumed)	+ (selective hV1a receptor agonist; EC50 hOT/hV1a ratio not determined due to very low agonist efficacy (<30% compared to AVP) at the hOT receptor)	
